Consider 1 compound from US6596733B2, “Use of nitric oxide scavengers to treat side effects caused by therapeutic administration of sources of nitric oxide” (Medinox, Inc., priority 1998, dated 2003).

The conditions of data set [1]: 10 mg/ml in drinking water for 14 days. The method, then: (§1) A pressure sensor chip for a telemetric device (Data Scientific International, Saint Paul, Minn.) was implanted in the dorsal abdominal aorta of male Wistar rat (250-280 g). The rats were allowed to recover from the surgery over a period of 24 hours. The implanted rats were separated into two groups (n=3); One received 10 mg/ml of L-proline dithiocarbamate (L-PD) in drinking water and the other received only distilled water for 14 days. […] On average, in the experimental group, each rat received about 800 mg/kg/day for 14 days.

Data set [2] relates to rats having physiological levels of nitric oxide. The conditions noted are these: rat, in vivo. The method, then: as §1

On to `NC(=S)S.O=C(O)[C@@H]1CCCN1` [L-PD, L-proline dithiocarbamate], for which, in data set [1], the “amounts of water consumption, experimental vs control group” value is given as “no significant difference” and the “weight gain, experimental vs control group” value is “no significant difference”. In data set [2], the “effect on blood pressure” value is on record as “no effect” and the “effect on heart rate” value is recorded as “no effect”.
